{
  "source": "patent US8530493B2",
  "about": "“Indolopyridines as Eg5 kinesin modulators” (4SC AG, priority 2006, dated 2013)",
  "data": [
    {"tested_on": "RKO p21 uninduced (proliferating) colon adenocarcinoma cells", "experiment": "Alamar Blue cell viability assay, RKO p21 uninduced (proliferating)", "type": "cell-based", "details": "Homo sapiens, Table B3, anti-proliferative/cytotoxic activity, 72 hours, read-out: −log EC50 RKO p21 uninduced (proliferating) (converted)", "procedure,_shortened": "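RKO p21 or p27 subclones grown without Ponasterone A, i.e. proliferating, exposed 24 h after seeding to semi-log compound dilutions in DMEM/10% FCS (1% DMSO controls) for 72 h at 37° C. Alamar Blue fluorescence (544/590 nm) read relative to untreated cells; EC50 from dose-response curves, given as −log EC50 (mol/l).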", "units": {"EC50": "nM"}, "values": [
      {"compound": "COc1ccc2[nH]c3c(c2c1F)C[C@@]1(C)C(=O)N(CCNCC2CC2)C(=O)N1[C@@H]3c1cccc(O)c1", "note": "(racemic) [Example 410, (3aSR,10RS)-2-[2-(Cyclopropylmethyl-amino)-ethyl]-5-fluoro-10-(3-hydroxy-phenyl)-6-methoxy-3a-methyl-3a,4,9,10-tetrahydro-2,9,10a-triaza-cyclopenta[b]fluorene-1,3-dione]", "EC50": "39.8 to 251"},
      {"compound": "COc1ccc2[nH]c3c(c2c1F)C[C@@]1(C)C(=O)N(CCNC2CCC2)C(=O)N1[C@@H]3c1cccc(O)c1", "note": "(racemic) [Example 413, (3aSR,10RS)-2-(2-Cyclobutylamino-ethyl)-5-fluoro-10-(3-hydroxy-phenyl)-6-methoxy-3a-methyl-3a,4,9,10-tetrahydro-2,9,10a-triaza-cyclopenta[b]fluorene-1,3-dione]", "EC50": "39.8 to 251"},
      {"compound": "COc1ccc2[nH]c3c(c2c1F)C[C@@]1(C)C(=O)N(CCNC(C)(C)C)C(=O)N1[C@@H]3c1cccc(O)c1", "note": "(racemic) [Example 414, (3aSR,10RS)-2-(2-tert-Butylamino-ethyl)-5-fluoro-10-(3-hydroxy-phenyl)-6-methoxy-3a-methyl-3a,4,9,10-tetrahydro-2,9,10a-triaza-cyclopenta[b]fluorene-1,3-dinone]", "EC50": "39.8 to 251"},
      {"compound": "COc1cc2c3c([nH]c2cc1F)[C@@H](c1cccc(O)c1)N1C(=O)N(CCNC2CCC2)C(=O)[C@]1(C)C3", "note": "(racemic) [Example 426, (3aSR,10RS)-2-(2-Cyclobutylamino-ethyl)-7-fluoro-10-(3-hydroxy-phenyl)-6-methoxy-3a-methyl-3a,4,9,10-tetrahydro-2,9,10a-triaza-cyclopenta[b]fluorene-1,3-dione]", "EC50": "≤ 39.8"},
      {"compound": "CCN(CCO)CCN1C(=O)N2[C@H](c3cccc(O)c3)c3[nH]c4cc(F)c(OC)cc4c3C[C@@]2(C)C1=O", "note": "(racemic) [Example 451, (3aSR,10RS)-2-{2-[Ethyl-(2-hydroxy-ethyl)-amino]-ethyl}-7-fluoro-10-(3-hydroxy-phenyl)-6-methoxy-3a-methyl-3a,4,9,10-tetrahydro-2,9,10a-triaza-cyclopenta[b]fluorene-1,3-dione]", "EC50": "39.8 to 251"},
      {"compound": "C=CCN(C)CCN1C(=O)N2[C@H](c3cccc(O)c3)c3[nH]c4cc(F)c(OC)cc4c3C[C@@]2(C)C1=O", "note": "(racemic) [Example 452, (3aSR,10RS)-2-[2-(Allyl-methyl-amino)-ethyl]-7-fluoro-10-(3-hydroxy-phenyl)-6-methoxy-3a-methyl-3a,4,9,10-tetrahydro-2,9,10a-triaza-cyclopenta[b]fluorene-1,3-dione]", "EC50": "39.8 to 251"},
      {"compound": "CN(CCO)CCCN1C(=O)N2[C@H](c3cccc(O)c3)c3[nH]c4ccc(OC(F)F)cc4c3C[C@@]2(C)C1=O", "note": "(racemic) [Example 453, (3aSR,10RS)-6-(1,1-Difluoro-methoxy)-2-{3-[(2-hydroxy-ethyl)-methyl-amino]-propyl}-10-(3-hydroxy-phenyl)-3a-methyl-3a,4,9,10-tetrahydro-2,9,10a-triaza-cyclopenta[b]fluorene-1,3-dione]", "EC50": "≤ 39.8"},
      {"compound": "CCN(CCOC)CCN1C(=O)N2[C@H](c3cccc(O)c3)c3[nH]c4cc(F)c(OC)cc4c3C[C@@]2(C)C1=O", "note": "(racemic) [Example 454, (3aSR,10RS)-2-{2-[Ethyl-(2-methoxy-ethyl)-amino]-ethyl}-7-fluoro-10-(3-hydroxy-phenyl)-6-methoxy-3a-methyl-3a,4,9,10-tetrahydro-2,9,10a-triaza-cyclopenta[b]fluorene-1,3-dione]", "EC50": "39.8 to 251"},
      {"compound": "CNCCCN1C(=O)N2[C@H](c3cccc(O)c3)c3[nH]c4cc(F)c(Cl)cc4c3C[C@@]2(C)C1=O", "note": "(racemic) [Example 456, (3aSR,10RS)-6-Chloro-7-fluoro-10-(3-hydroxy-phenyl)-3a-methyl-2-(3-methylamino-propyl)-3a,4,9,10-tetrahydro-2,9,10a-triaza-cyclopenta[b]fluorene-1,3-dione]", "EC50": "39.8 to 251"},
      {"compound": "CCNCCCN1C(=O)N2[C@H](c3cccc(O)c3)c3[nH]c4cc(F)c(Cl)cc4c3C[C@@]2(C)C1=O", "note": "(racemic) [Example 457, (3aSR,10RS)-6-Chloro-2-(3-ethylamino-propyl)-7-fluoro-10-(3-hydroxy-phenyl)-3a-methyl-3a,4,9,10-tetrahydro-2,9,10a-triaza-cyclopenta[b]fluorene-1,3-dione]", "EC50": "39.8 to 251"},
      {"compound": "CC(C)NCCCN1C(=O)N2[C@H](c3cccc(O)c3)c3[nH]c4cc(F)c(Cl)cc4c3C[C@@]2(C)C1=O", "note": "(racemic) [Example 458, (3aSR,10RS)-6-Chloro-7-fluoro-10-(3-hydroxy-phenyl)-2-(3-isopropylamino-propyl)-3a-methyl-3a,4,9,10-tetrahydro-2,9,10a-triaza-cyclopenta[b]fluorene-1,3-dione]", "EC50": "39.8 to 251"},
      {"compound": "CC(C)CNCCCN1C(=O)N2[C@H](c3cccc(O)c3)c3[nH]c4cc(F)c(Cl)cc4c3C[C@@]2(C)C1=O", "note": "(racemic) [Example 459, (3aSR,10RS)-6-Chloro-7-fluoro-10-(3-hydroxy-phenyl)-2-(3-isobutylamino-propyl)-3a-methyl-3a,4,9,10-tetrahydro-2,9,10a-triaza-cyclopenta[b]fluorene-1,3-dione]", "EC50": "39.8 to 251"},
      {"compound": "C[C@@]12Cc3c([nH]c4cc(F)c(Cl)cc34)[C@@H](c3cccc(O)c3)N1C(=O)N(CCCNCC1CC1)C2=O", "note": "(racemic) [Example 460, (3aSR,10RS)-6-Chloro-2-[3-(cyclopropylmethyl-amino)-propyl]-7-fluoro-10-(3-hydroxy-phenyl)-3a-methyl-3a,4,9,10-tetrahydro-2,9,10a-triaza-cyclopenta[b]fluorene-1,3-dione]", "EC50": "39.8 to 251"},
      {"compound": "C[C@@]12Cc3c([nH]c4cc(F)c(Cl)cc34)[C@@H](c3cccc(O)c3)N1C(=O)N(CCCNCCO)C2=O", "note": "(racemic) [Example 461, (3aSR,10RS)-6-Chloro-7-fluoro-2-[3-(2-hydroxy-ethylamino)-propyl]-10-(3-hydroxy-phenyl)-3a-methyl-3a,4,9,10-tetrahydro-2,9,10a-triaza-cyclopenta[b]fluorene-1,3-dione]", "EC50": "39.8 to 251"},
      {"compound": "COCCNCCCN1C(=O)N2[C@H](c3cccc(O)c3)c3[nH]c4cc(F)c(Cl)cc4c3C[C@@]2(C)C1=O", "note": "(racemic) [Example 462, (3aSR,10RS)-6-Chloro-7-fluoro-10-(3-hydroxy-phenyl)-2-[3-(2-methoxy-ethylamino)-propyl]-3a-methyl-3a,4,9,10-tetrahydro-2,9,10a-triaza-cyclopenta[b]fluorene-1,3-dione]", "EC50": "≤ 39.8"},
      {"compound": "C[C@@]12Cc3c([nH]c4cc(F)c(Cl)cc34)[C@@H](c3cccc(O)c3)N1C(=O)N(CCCNC1CCC1)C2=O", "note": "(racemic) [Example 463, (3aSR,10RS)-6-Chloro-2-(3-cyclobutylamino-propyl)-7-fluoro-10-(3-hydroxy-phenyl)-3a-methyl-3a,4,9,10-tetrahydro-2,9,10a-triaza-cyclopenta[b]fluorene-1,3-dione]", "EC50": "39.8 to 251"},
      {"compound": "CC(C)(C)NCCCN1C(=O)N2[C@H](c3cccc(O)c3)c3[nH]c4cc(F)c(Cl)cc4c3C[C@@]2(C)C1=O", "note": "(racemic) [Example 464, (3aSR,10RS)-2-(3-tert-Butylamino-propyl)-6-chloro-7-fluoro-10-(3-hydroxy-phenyl)-3a-methyl-3a,4,9,10-tetrahydro-2,9,10a-triaza-cyclopenta[b]fluorene-1,3-dione]", "EC50": "39.8 to 251"},
      {"compound": "C=CCNCCCN1C(=O)N2[C@H](c3cccc(O)c3)c3[nH]c4cc(F)c(Cl)cc4c3C[C@@]2(C)C1=O", "note": "(racemic) [Example 465, (3aSR,10RS)-2-(3-Allylamino-propyl)-6-chloro-7-fluoro-10-(3-hydroxy-phenyl)-3a-methyl-3a,4,9,10-tetrahydro-2,9,10a-triaza-cyclopenta[b]fluorene-1,3-dione]", "EC50": "39.8 to 251"},
      {"compound": "C#CCNCCCN1C(=O)N2[C@H](c3cccc(O)c3)c3[nH]c4cc(F)c(Cl)cc4c3C[C@@]2(C)C1=O", "note": "(racemic) [Example 466, (3aSR,10RS)-6-Chloro-7-fluoro-10-(3-hydroxy-phenyl)-3a-methyl-2-(3-prop-2-ynylamino-propyl)-3a,4,9,10-tetrahydro-2,9,10a-triaza-cyclopenta[b]fluorene-1,3-dione]", "EC50": "39.8 to 251"},
      {"compound": "CCN(C)CCCN1C(=O)N2[C@H](c3cccc(O)c3)c3[nH]c4cc(F)c(Cl)cc4c3C[C@@]2(C)C1=O", "note": "(racemic) [Example 467, (3aSR,10RS)-6-Chloro-2-[3-(ethyl-methyl-amino)-propyl]-7-fluoro-10-(3-hydroxy-phenyl)-3a-methyl-3a,4,9,10-tetrahydro-2,9,10a-triaza-cyclopenta[b]fluorene-1,3-dione]", "EC50": "≤ 39.8"},
      {"compound": "CN(CCO)CCCN1C(=O)N2[C@H](c3cccc(O)c3)c3[nH]c4cc(F)c(Cl)cc4c3C[C@@]2(C)C1=O", "note": "(racemic) [Example 468, (3aSR,10RS)-6-Chloro-7-fluoro-2-{3-[(2-hydroxy-ethyl)-methyl-amino]-propyl}-10-(3-hydroxy-phenyl)-3a-methyl-3a,4,9,10-tetrahydro-2,9,10a-triaza-cyclopenta[b]fluorene-1,3-dione]", "EC50": "≤ 39.8"},
      {"compound": "CCN(CC)CCCN1C(=O)N2[C@H](c3cccc(O)c3)c3[nH]c4cc(F)c(Cl)cc4c3C[C@@]2(C)C1=O", "note": "(racemic) [Example 469, (3aSR,10RS)-6-Chloro-2-(3-diethylamino-propyl)-7-fluoro-10-(3-hydroxy-phenyl)-3a-methyl-3a,4,9,10-tetrahydro-2,9,10a-triaza-cyclopenta[b]fluorene-1,3-dione]", "EC50": "≤ 39.8"},
      {"compound": "CCN(CCO)CCCN1C(=O)N2[C@H](c3cccc(O)c3)c3[nH]c4cc(F)c(Cl)cc4c3C[C@@]2(C)C1=O", "note": "(racemic) [Example 470, (3aSR,10RS)-6-Chloro-2-{3-[ethyl-(2-hydroxy-ethyl)-amino]-propyl}-7-fluoro-10-(3-hydroxy-phenyl)-3a-methyl-3a,4,9,10-tetrahydro-2,9,10a-triaza-cyclopenta[b]fluorene-1,3-dione]", "EC50": "≤ 39.8"}
    ]}
  ]
}
